From article PMC3006138, “Fexinidazole – A New Oral Nitroimidazole Drug Candidate Entering Clinical Development for the Treatment of Sleeping Sickness” (PLoS Neglected Tropical Diseases, 2010) come the findings set out here.

Data set [1] has as its system cytochrome P450 (CYP450) enzymes. Description: In vitro CYP-450 metabolism (whole panel). Format: in vitro ADME, human. The conditions noted are these: 1.0 µM, up to 60 min. The protocol: Duplicate samples of human recombinant CYP enzyme isotypes CYP1A2, CYP2B6, CYP2C8, CYP2C9, CYP2C19, CYP2D6, CYP3A4, CYP3A5 (10–30 pmol/mL) with NADPH as cofactor were incubated with fexinidazole, fexinidazole sulfoxide, or fexinidazole sulfone at a concentration of 1.0 µM for up to 60 min (pH 7.4, 37°C). Detection of the compounds was via HPLC-MS.

Data set [2] deals with Salmonella typhimurium. Description: Ames test. In kind it is cell-based. The conditions noted are these: for bacterial mutagenicity: standard strains, with and without S9. How it is done: To evaluate bacterial mutagenicity, a full Ames test was carried out on fexinidazole and fexinidazole sulfone using the five strains of Salmonella typhimurium recommended by the relevant ICH regulatory guideline, namely TA1535, TA1537, TA98, TA100, and TA102, as well as the corresponding nitroreductase-deficient strains, [48]. Standard bacterial plate incorporation assays were carried out, essentially as described by Maron and Ames. Tests on fexinidazole were carried out with and without rat liver post-mitochondrial fraction plus co-factors (S9 mix) to provide a mammalian metabolic activation system. The S9 fraction was prepared from Spague-Dawley rats pretreated with the mixed cytochrome P 450 enzyme inducer Aroclor 1254. Tests on fexinidazole sulfone were carried out only in the absence of rat liver S9 (as this is a metabolite). After incubation at 37°C for three days, plates were scored for mutant colonies using a Colony Counter plate reader.
For orientation: The Ames test uses bacterial strains that need an amino acid and regain growth without it when mutated back.

A short description of data set [3]: Rat single-dose IV and oral pharmacokinetics. Format: in vivo. The note with it: for AUC(0-t): read-out: AUC0-t(last); for half-life: read-out: t1/2,z (converted). The protocol:
METHODS […] Fexinidazole was given as IV and oral administrations to male Sprague Dawley rats according to the following scheme Rat ID Route Dose (mg/kg) Formulation […] IV dose was administered via the tail vein, the oral dose was administered by gastric gavage. 4.2. […] On the day of dosing, approximately 0.3 mL of blood/sampling time were taken from the cannula using heparinized syringes, transferred immediately into tubes (pre-cooled in an ice/water bath) and centrifuged at […] The separated plasma was split into two aliquots, then stored at -80°C until analysis. […] 4.3. Bioanalytical Method Plasma concentrations of Fexinidazole were determined by a LC-MS-MS method. The lower limit of the bioanalytical method was 5.12 ng/mL. […] Details of the bioanalytical method were reported in Appendix 2 and the analytical performance was reported in Appendix 3. 4.4. […] For the calculations, pre-dose concentrations were set equal to C0.033 and equal to zero after IV and oral administrations, respectively. […] regression line. […] Absolute bioavailability was calculated from the ratio of the average oral to IV dose- normalized AUC0-∞ values. […] Plasma concentrations and pharmacokinetic parameters of Fexinidazole were reported to three significant figures. 5. RESULTS Mean ±SD systemic exposure parameters of Fexinidazole after IV and oral administrations of the compound are reported in Table 1. […] This side […] After oral administration, detectable concentrations of Fexinidazole were measured at the […] Mean ±SD maximal plasma concentration of Fexinidazole was 147 ±37 ng/mL, achieved 2 h post dosing. The concentrations of the compound were detectable up to the end of the experiment (8 h). […] Mean ±SD AUC0-∞ was 662 ±106 ng⋅h/mL. […] 6. CONCLUSIONS After both doses, low variability of the pharmacokinetic parameters of Fexinidazole was observed. […] Report Amendment for Study 0327-2007 2. […] METHODS […] The lower limit of the bioanalytical method was 5.00 ng/mL for both compounds. […] Details of the bioanalytical method are reported in Table 1 and the analytical performances of calibration standards are reported in Tables 2-5. 3.2.

Data set [4] has as its system human lymphocytes. Nature of the data set: In vitro micronucleus test. In kind it is cell-based. The protocol:
Duplicate human lymphocyte cultures were prepared from the pooled blood of two donors in two independent experiments. […] The test concentrations for micronucleus analysis were selected by evaluating the effect of fexinidazole on the replication index (RI). In each experiment, micronuclei were analysed at three concentrations. Similar tests were carried out on fexinidazole sulfone. As per the Ames test, this was carried out in the absence of rat liver S9 only.

A short description of data set [5]: Chemical stability in incubation medium alone. In kind it is physicochemical. The conditions noted are these: fexinidazole 10 µM, Leibovitz medium alone, 120 min. The protocol:
Incubations were performed in duplicate in a 48-well plate under shaking. Sampling was performed using an automatic liquid handling system (Multiprobe II EX, Packard). […] in acetonitrile (internal standard) were added, and samples centrifuged at 2000 rpm for 20 min. The supernatant was analyzed by LC-MS/MS. The chemical stability of fexinidazole was checked by incubating the compound at 37°C in the medium alone at t = 0 and 120 minutes. For the determination of phase I and phase II activity of hepatocytes, 7-ethoxycoumarin (7- […] incubated under the same conditions as fexinidazole. Aliquots of incubates were taken at 0, 10, 20, 30, 60 and 120 minutes and processed as fexinidazole samples. […] Metabolite Profile Study […] mouse, rat, dog, monkey and human hepatocytes (300000 cells/mL for the mouse and 1 million cells/mL for the other species) in a final incubation volume of 2 mL Leibovitz L-15 medium, at 37°C. Aliquots of the incubation samples were taken at t = 0, 30 and 120 minutes; the metabolism was stopped by the addition of an equal volume of cold acetonitrile and the samples centrifuged at 1500 rpm for 20 min. The supernatant was stored at -20°C until analysis. Control incubations were performed with the compound in the medium alone for 120 minutes. […] Nerviano Medical Sciences […] For the determination of phase I and phase II activities of hepatocytes, 7-ethoxycoumarin (7- […] incubated under the same conditions as fexinidazole. Aliquots of incubates were taken at 0, […] 7.5.2. Metabolite Profile Study […] pooled human hepatocytes (1 million cells/mL) in a final incubation volume of 2 mL Leibovitz L-15 medium, at 37°C. Aliquots of the incubation samples were taken at t = 0, 30 and 120 minutes; the metabolism was stopped by the addition of an equal volume of cold acetonitrile and the samples centrifuged at 1100 rpm for 20 min. The supernatant was stored at -20°C until analysis. Control incubations were performed with the compound in the medium alone for 120 minutes. […] Valco Divert Valve Step Total time (min) Position […]

Setting [6] is: Sprague Dawley, plasma, fexinidazole 5 mg/kg IV, male SD rats, read-out: Cmax (C0.033 for parent).
Where [7] appears, read: male, Sprague Dawley, plasma, fexinidazole 5 mg/kg IV.
Where [8] appears, read: male, Sprague Dawley, plasma, fexinidazole 10 mg/kg oral.
[9] abbreviates: male, Sprague Dawley, plasma, fexinidazole 10 mg/kg oral, read-out: Cmax.

A word on the Cmax: it is the peak of the concentration-time curve. As usually defined, the Tmax is the time at which the peak concentration occurs. Usually bioavailability stands for dose-corrected exposure relative to a reference, in per cent.

“Also recorded” adds a separate entry of the source. Like-named read-outs stand apart in the source and are kept apart here.

Take `Cn1c([N+](=O)[O-])cnc1COc1ccc(S(C)(=O)=O)cc1` [Fexinidazole sulfone]: in data set [1], the “metabolism by the enzymes tested” value was “none of the enzymes tested metabolised”. Besides, the bacterial mutagenicity result in data set [2] is listed as “gave similar results to fexinidazole”. Moreover, the Cmax in data set [3] (setting [6]) is 2090 ng/mL; in data set [3] (setting [9]) it was 2660 ng/mL. Besides, the Tmax in data set [3] (setting [7]) came out at 5.33 h; in data set [3] (setting [8]), 6 h. Further, the AUC(0-t) came out at 9590 ng·h/mL in data set [3] (setting [7]) and 14300 ng·h/mL in data set [3] (setting [8]). Moreover, in data set [4], the “in vitro micronucleus test result” value is reported as “negative”.

Regarding `Cn1c([N+](=O)[O-])cnc1COc1ccc([S+](C)[O-])cc1` (stereo not drawn) [Fexinidazole sulfoxide], the “metabolism by the enzymes tested” value in data set [1] is reported as “none of the enzymes tested metabolised”. Further, the Cmax in data set [3] (setting [6]) came to 3070 ng/mL; in data set [3] (setting [9]), 3520 ng/mL. Moreover, the Tmax in data set [3] (setting [7]) is 1 h; in data set [3] (setting [8]) it was 2 h. Besides, the AUC(0-t) in data set [3] (setting [7]) came out at 9440 ng·h/mL; in data set [3] (setting [8]), 16200 ng·h/mL. For the same molecule, the “% of total drug related material” value in data set [5] came to 18%.

`CSc1ccc(OCc2ncc([N+](=O)[O-])n2C)cc1` [Fexinidazole, 1-methyl-2-((p-(methylthio)phenoxy)methyl)-5-nitroimidazole]: the mutagenic activity result in data set [2] (nitroreductase-deficient Salmonella strains) was “significantly reduced or abolished”. Further, the bacterial mutagenicity entry in data set [2] is “elicited both frameshift and base substitution mutations; also recorded: mutagenic in the Ames test”. The Cmax was determined as 3660 ± 217 ng/mL in data set [3] (setting [6]) and 147 ± 36.6 ng/mL in data set [3] (setting [9]). Moreover, the clearance in data set [3] (male, Sprague Dawley, plasma, 5 mg/kg IV) was 76.2 mL/min/kg. For the same molecule, the Vd in data set [3] (male, Sprague Dawley, plasma, 5 mg/kg IV, read-out: Vss) was 4.69 L/kg. The values for the AUC(0-t) in data set [3] (setting [7]) and in data set [3] (setting [8]) were 1160 ng·h/mL and 631 ng·h/mL, respectively. Further, the half-life was 1.71 h in data set [3] (setting [7]) and 1.72 h in data set [3] (setting [8]). In addition, the Tmax in data set [3] (setting [8]) stood at 2 h. For the same molecule, the AUC(0-inf) in data set [3] (male, Sprague Dawley, plasma, iv, 5 mg/kg, fexinidazole 5 mg/kg IV, read-out: AUC0-∞) is 1200 ± 26.5 ng·h/mL; in data set [3] (male, Sprague Dawley, plasma, po, 10 mg/kg, fexinidazole 10 mg/kg oral, read-out: AUC0-∞), 662 ± 106 ng·h/mL; in data set [3] (male, Sprague Dawley, plasma, po, 10 mg/kg, oral, normalized to 1 mg/kg, read-out: AUC0-∞, norm), 65.1 ng·h/mL. The bioavailability in data set [3] (male, Sprague Dawley, plasma, oral, 10 mg/kg, oral 10 mg/kg vs IV 5 mg/kg, read-out: Absolute bioavailability F) is 30%. The “Absolute bioavailability F” value in data set [3] (oral 10 mg/kg vs IV 5 mg/kg) is on record as 29.7%. In data set [4], the “in vitro micronucleus test result” value was “did not induce the formation of micronuclei”. Besides, the Micronucleated binucleate cells in data set [4] (20 μg/mL, 24-h PHA, +S9) came out at 0.50%; in data set [4] (20 μg/mL, 24-h PHA, −S9) it was 0.50%; in data set [4] (20 μg/mL, 48-h PHA, +S9), 0.60%; in data set [4] (20 μg/mL, 48-h PHA, −S9) it was 1.1%; in data set [4] (40 μg/mL, 24-h PHA, +S9) it was 0.55%; in data set [4] (40 μg/mL, 24-h PHA, −S9), 0.40%. Also, the Micronucleated binucleate cells worked out at 1.20% in data set [4] (40 μg/mL, 48-h PHA, +S9); 0.60% in data set [4] (40 μg/mL, 48-h PHA, −S9); 0.75% in data set [4] (80 μg/mL, 24-h PHA, +S9); 0.70% in data set [4] (80 μg/mL, 24-h PHA, −S9); 0.40% in data set [4] (80 μg/mL, 48-h PHA, +S9); 0.90% in data set [4] (80 μg/mL, 48-h PHA, −S9). For the same molecule, the “% of total drug related material” value in data set [5] is reported as “about 84%”; in data set [5] (listed as P), 82%.
